{"source": "patent US20240342169A1", "about": "(BETTA PHARMACEUTICALS CO., LTD, priority 2021, published 2024)", "key": {"MET(ex14Del) kinase": {"target": "T1, MET(ex14Del) kinase (Homo sapiens, UniProt P08581, DEL963-1009)", "T1 construct": "purchased Sinalchem (so in the source)", "T1 sequence (P08581 with tags, fused parts or gaps DEL963-1009 limits assumed)": "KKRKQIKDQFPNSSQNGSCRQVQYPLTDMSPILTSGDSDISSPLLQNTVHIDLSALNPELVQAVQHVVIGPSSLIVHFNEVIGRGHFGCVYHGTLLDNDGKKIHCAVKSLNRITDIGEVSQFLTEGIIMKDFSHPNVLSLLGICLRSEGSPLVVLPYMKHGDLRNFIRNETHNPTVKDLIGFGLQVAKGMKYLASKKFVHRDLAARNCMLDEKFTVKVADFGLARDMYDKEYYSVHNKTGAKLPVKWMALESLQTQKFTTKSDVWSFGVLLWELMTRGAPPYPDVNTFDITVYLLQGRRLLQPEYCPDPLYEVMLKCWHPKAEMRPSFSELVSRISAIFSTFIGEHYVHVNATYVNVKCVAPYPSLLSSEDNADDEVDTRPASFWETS", "assay": "Kinase inhibitory activity assay (ADP-Glo Kinase Assay Kit)", "format": "biochemical", "settings": "60 minutes at 25° C., read-out: IC50 (half inhibitory concentration) for MET (ex14Del) kinase", "method": "• MET(ex14Del) kinase(Sinalchem, M52-12PG); • ADP-Glo Kinase Assay Kit(Promega, V9102);\nAnd then serially diluted 9 times with DMSO at a volume ratio of 1:3 to make 10 concentrations of 100× compound working solution, the diluted compound solution was added to a 384-well plate at a volume of 0.1 μL/well. 5 μL enzyme working solution was added to the 384-well plate, centrifuged at 1000 rpm for 1 minute, incubated 15 minutes at 25° C. 5 μL substrate working solution was added to each well to make 10 concentrations of 1× compound working solution by 3-fold serial dilutions, in which the maximum concentration of the compound solution is 3000 nM, the reaction was triggered and incubated 60 minutes at 25° C. 10 μL ADP-Glo agent(Promega, V9102) was added to each well, centrifuged at 1000 rpm for 1 minute, incubated 15 minutes at 25° C., then 20 μL kinase detection reagent was added to each well, centrifuged at 1000 rpm for 1 minute. RLU (relative luminescence units) was read by Envision Multimode Plate Reader, the value of RLU was used to characterize the degree of reaction between enzyme and substrate, IC50 values were calculated by XLfit 5.3.1 nonlinear regression equation."}, "[1]": {"tested_on": "Hs746T cells (harbor an MET exon 14 skipping mutation)", "assay": "Cell proliferation inhibitory activity (CellTiter-Glo)", "format": "cell-based", "settings": "Homo sapiens, 168 hours incubation, CTG", "method": "• 1). Cells in logarithmic growth phase were harvested and counted using cell counter. Trypan blue exclusion test was used to measure the cell viability to make sure the cell viability is at least 90%.\n2). Adjust cell concentration, 180 μL cell suspension was added to each well of the 96-well plate at a density of 1200 cells/well.\n3). The 96-well plate was incubated overnight under 5% CO2 and 95% humidity conditions at 37° C.\n• 1). 20 μL PBS was added to each well of the seeded 96-well plate. • 2). CTG agent was melted and the cell plate was equilibrated to room temperature for 30 minutes. • 3). 100 μL CTG solution was added to each well. • 4). The plate was placed on an orbital shaker for 5 minutes to lyse the cells. • 5). The plate was placed at room temperature for 20 minutes to stabilize the luminescent signal. • 6). TO luminescence value (Lum) was recorded.\n• 1). CTG agent was melted and the cell plate was equilibrated to room temperature for 30 minutes. • 2). 100 μL CTG solution was added to each well. • 3). The plate was placed on an orbital shaker for 5 minutes to lyse the cells. • 4). […] Endpoint luminescence value (Lum) was recorded.\nThe data were analyzed using GraphPad Prism 7.0, in order to calculate IC50, a dose-response curve was fitted using nonlinear regression model with a sigmoidal dose response. […]"}, "Hs746T Xenograft Model": {"tested_on": "Hs746T Xenograft Model", "assay": "In vivo antitumor activity, Hs746T Xenograft Model", "set-up": "species or system BALB/c nude mice", "settings": "for Tumor volume: 30 mg/kg intragastrically twice a day", "excerpt": "BALB/c nude mice provided by Shanghai Sipur-Bika Experimental Animal Co., Ltd: SPF grade animals, 6-8 weeks old, weighing 18-23 grams; gender: female; number: 18 mice in the group. • Antibiotic(penicillin, streptomycin): (Gibco, 15240-062). • Administration in solvent control group: Aqueous solution containing 0.5% HPMC and 0.4% Tween 80.\nIn order to prepare a Hs746T Xenograft Model, BALB/c Nude mice were inoculated subcutaneously with Hs746T cells (harbor an MET exon 14 skipping mutation, provided by ATCC (American Type Cultural Collection)). […] Test compounds were administered intragastrically starting from group date, twice a day for 18 days. Safety evaluation was performed based on animal weight changes and death, and efficacy evaluation was performed based on relative tumor inhibition rate (TGI %).\nHuman gastric cancer Hs746T cells were cultured single layer in vitro using DMEM medium containing […] and 1% antibiotic solution, and incubated in a 5% CO2, 37° C. incubator. The cells were subcultured traditionally twice a week. The cells were harvested when the confluence reached 80%-90% and the number of cells reaches the required level, and then the cells were counted and seeded.\n3. Tumor Measurement and Experimental Indicators Tumor diameters were measured twice a week with vernier calipers. The formula for calculating tumor volume was: V=0.5a×b2, where a and b are the long and short diameters of the tumor, respectively.\nAfter the experiment, the tumor weight will be measured and TGI (%) will be calculated to reflect the rate of tumor growth inhibition. Calculation of TGI(%):TGI (%)=[1−(Average tumor volume at the end of administration in a certain treatment group−Average tumor volume at the beginning of administration in this treatment group)/(Average tumor volume at the end of treatment in the solvent control group−Average tumor volume at the beginning of treatment in the solvent control group)]×100%."}, "[2]": {"tested_on": "stage IIIB/IV NSCLC carrying a MET exon 14 skipping mutation", "assay": "Clinical study in NSCLC patients carrying a MET exon 14 skipping mutation", "format": "in vivo, human", "settings": "225 mg orally once a day", "excerpt": "Inclusion Criteria: Male or female adults, aged >18 years; Patients had newly diagnosed histologically/cytologically confirmed stage IIIB/IV. NSCLC; Patients carrying a MET exon 14 skipping mutation; EGFR/ALK wild type; at least one measurable lesion."}}, "note": "pIC50: −log10 of the molar value."}
{"smiles": "C[C@@H]1CN(C(=O)c2ccc(NC(=O)c3cc(O[C@H](C)c4c(Cl)ccc(F)c4Cl)c(N)nn3)cc2)C[C@H](C)N1", "note": "[Ensartinib, ensartinib]", "values": [{"measurement": "pIC50", "setting": "MET(ex14Del) kinase", "result": 8.12}, {"measurement": "pIC50", "setting": "[1]", "result": 7.51}, {"measurement": "Tumor growth in tumor-bearing mice (in words)", "setting": "Hs746T Xenograft Model; 30 mg/kg intragastrically twice a day for 18 days", "result": "obvious tumor regression was observed"}, {"measurement": "Tumor volume", "setting": "Hs746T Xenograft Model; Day 0 (start of dosing)", "result": "128 ± 10", "unit": "mm^3"}, {"measurement": "Tumor volume", "setting": "Hs746T Xenograft Model; Day 3", "result": "109 ± 8", "unit": "mm^3"}, {"measurement": "Tumor volume", "setting": "Hs746T Xenograft Model; Day 7", "result": "101 ± 8", "unit": "mm^3"}, {"measurement": "Tumor volume", "setting": "Hs746T Xenograft Model; Day 10", "result": "74 ± 9", "unit": "mm^3"}, {"measurement": "Tumor volume", "setting": "Hs746T Xenograft Model; Day 14", "result": "49 ± 8", "unit": "mm^3"}, {"measurement": "Tumor volume", "setting": "Hs746T Xenograft Model; Day 17", "result": "29 ± 15", "unit": "mm^3"}, {"measurement": "ORR (objective response rate)", "setting": "[2]; 12/17 patients", "result": 71, "unit": "%"}, {"measurement": "DCR (disease control rate)", "setting": "[2]; 16/17 patients", "result": 94, "unit": "%"}, {"measurement": "average tumor shrinkage rate", "setting": "[2]; 17 patients", "result": "−37.7", "unit": "%"}, {"measurement": "CR (complete response)", "setting": "[2]; among 17 patients", "result": 1, "unit": "case"}, {"measurement": "PR (partial response)", "setting": "[2]; among 17 patients", "result": 11, "unit": "cases"}]}
